Measurements reported in ChEMBL document CHEMBL1201862, “PubChem BioAssay data set” (2004).
Active and inactive are the calls of the source.

Legend:
[1] = growth suppression of PTEN-null colon cells, dose response, cell-based, HCT116 PTEN knockout (AID 1047); format: functional;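 note: HCT116 colon tumor cells with PTEN knocked out; cells exposed to compound for 60 hours before readout; potency for loss of cell viability measured by luminescence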
INS1 = experiment: beta cell apoptosis inhibitors, cytokine rescue, dose response, luminescence, retest (AID 449756); format: functional, cell-based; conditions: Rattus norvegicus;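 note: cell death triggered by IL-1 beta plus TNF-alpha plus IFN-gamma mixture; protective hits raise ATP signal compared with cytokine alone wells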
[2] = molecular target: T1, Replicative DNA helicase DnaB (Mycobacterium tuberculosis, UniProt P9WMR3); experiment: DnaB intein splicing inhibitors, dose response, biochemical, cell-free fluorescence (AID 449749); format: functional
T1 sequence (P9WMR3 whole entry): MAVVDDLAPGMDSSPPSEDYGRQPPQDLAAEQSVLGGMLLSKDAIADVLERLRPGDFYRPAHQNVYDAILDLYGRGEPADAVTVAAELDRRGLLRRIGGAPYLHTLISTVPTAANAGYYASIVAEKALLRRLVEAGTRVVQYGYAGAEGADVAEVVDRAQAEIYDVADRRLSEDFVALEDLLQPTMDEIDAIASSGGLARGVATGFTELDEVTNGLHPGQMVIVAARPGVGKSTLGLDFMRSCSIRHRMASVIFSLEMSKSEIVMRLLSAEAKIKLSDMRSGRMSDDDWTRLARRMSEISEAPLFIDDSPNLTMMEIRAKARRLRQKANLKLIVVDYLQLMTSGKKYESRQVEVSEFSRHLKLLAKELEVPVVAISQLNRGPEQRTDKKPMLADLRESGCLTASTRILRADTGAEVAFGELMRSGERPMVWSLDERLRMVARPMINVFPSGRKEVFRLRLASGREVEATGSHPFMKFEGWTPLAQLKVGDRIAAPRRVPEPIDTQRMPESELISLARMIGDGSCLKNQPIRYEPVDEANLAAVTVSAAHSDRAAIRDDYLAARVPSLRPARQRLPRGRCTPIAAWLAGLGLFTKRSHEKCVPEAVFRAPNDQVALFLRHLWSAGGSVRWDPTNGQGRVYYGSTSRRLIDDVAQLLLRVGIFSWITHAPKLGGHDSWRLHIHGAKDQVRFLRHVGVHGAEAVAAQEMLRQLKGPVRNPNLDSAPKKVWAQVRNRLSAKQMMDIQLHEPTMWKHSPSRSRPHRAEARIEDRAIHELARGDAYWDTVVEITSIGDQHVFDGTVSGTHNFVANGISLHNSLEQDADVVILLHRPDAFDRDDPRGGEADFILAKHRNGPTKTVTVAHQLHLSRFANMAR

[3] = molecular target: Glucose-6-phosphate 1-dehydrogenase (Homo sapiens, UniProt P11413); experiment: human G6PD enzyme inhibitors, dose response, selectivity assay for P. falciparum G6PD inhibitor project, biochemical, fluorescence (AID 504792); format: functional
Streptococcus = experiment: Group A Streptococcus viability loss, dose response, counter-screen for streptokinase expression inhibitor project, luminescence, BacTiterGlo (AID 1915); format: functional, organism-based;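 note: potency for reduction of bacterial viability or growth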
[4] = insulin promoter down-regulators in MIN6 cells, imaging, high-content screening, mouse beta cells (AID 1628); format: functional
Streptokinase A = molecular target: T2, Streptokinase A (Streptococcus pyogenes serotype M1, UniProt P10520); experiment: S. pyogenes streptokinase expression inhibitors, potency, dose response, plasminogen activation absorbance, OD405 (AID 1914); format: functional, Streptococcus pyogenes M1 GAS;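 note: secreted streptokinase activity via plasminogen activation per viability signal from cell pellet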
T2 sequence (P10520 whole entry): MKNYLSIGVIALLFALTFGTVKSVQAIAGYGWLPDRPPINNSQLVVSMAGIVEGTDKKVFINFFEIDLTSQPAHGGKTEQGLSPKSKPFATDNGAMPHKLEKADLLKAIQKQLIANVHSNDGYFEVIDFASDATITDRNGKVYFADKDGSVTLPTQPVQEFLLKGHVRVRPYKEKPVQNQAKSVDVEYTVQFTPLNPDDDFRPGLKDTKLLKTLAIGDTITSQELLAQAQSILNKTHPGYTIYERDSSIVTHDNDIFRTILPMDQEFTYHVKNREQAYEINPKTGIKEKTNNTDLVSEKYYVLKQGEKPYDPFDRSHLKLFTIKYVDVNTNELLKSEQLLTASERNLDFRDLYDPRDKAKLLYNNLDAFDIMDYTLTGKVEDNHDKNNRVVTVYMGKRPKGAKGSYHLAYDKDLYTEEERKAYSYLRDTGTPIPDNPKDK

[5] = molecular target: T3, Heat shock factor protein 1 (Mus musculus, UniProt P38532); experiment: inhibition of MG132-induced HSE-luciferase signal, confirmation, cell-based, NIH3T3, luminescence, dose retest (AID 2382); format: functional;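 note: NIH3T3 fibroblasts with HSF1-driven luciferase reporter stressed by proteasome inhibitor MG132; luminescence from HSF1-driven luciferase expression after 8 hours of MG132 stress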
T3 sequence (P38532 whole entry): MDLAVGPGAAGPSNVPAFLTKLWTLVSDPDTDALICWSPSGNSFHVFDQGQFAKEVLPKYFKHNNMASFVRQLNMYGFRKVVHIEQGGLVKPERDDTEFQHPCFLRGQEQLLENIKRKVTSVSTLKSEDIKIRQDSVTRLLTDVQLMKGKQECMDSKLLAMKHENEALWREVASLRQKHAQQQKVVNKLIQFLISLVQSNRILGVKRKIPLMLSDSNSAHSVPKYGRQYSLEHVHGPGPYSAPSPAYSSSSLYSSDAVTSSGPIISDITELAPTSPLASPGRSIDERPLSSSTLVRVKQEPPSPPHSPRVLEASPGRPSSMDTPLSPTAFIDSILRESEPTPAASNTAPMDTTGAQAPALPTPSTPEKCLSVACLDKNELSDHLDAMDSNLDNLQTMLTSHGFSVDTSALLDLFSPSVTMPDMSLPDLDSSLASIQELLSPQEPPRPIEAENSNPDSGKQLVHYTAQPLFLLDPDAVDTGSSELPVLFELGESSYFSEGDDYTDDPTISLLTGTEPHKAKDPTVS

Glucose-6-phosphate 1-dehydrogenase, sequence (P11413 whole entry): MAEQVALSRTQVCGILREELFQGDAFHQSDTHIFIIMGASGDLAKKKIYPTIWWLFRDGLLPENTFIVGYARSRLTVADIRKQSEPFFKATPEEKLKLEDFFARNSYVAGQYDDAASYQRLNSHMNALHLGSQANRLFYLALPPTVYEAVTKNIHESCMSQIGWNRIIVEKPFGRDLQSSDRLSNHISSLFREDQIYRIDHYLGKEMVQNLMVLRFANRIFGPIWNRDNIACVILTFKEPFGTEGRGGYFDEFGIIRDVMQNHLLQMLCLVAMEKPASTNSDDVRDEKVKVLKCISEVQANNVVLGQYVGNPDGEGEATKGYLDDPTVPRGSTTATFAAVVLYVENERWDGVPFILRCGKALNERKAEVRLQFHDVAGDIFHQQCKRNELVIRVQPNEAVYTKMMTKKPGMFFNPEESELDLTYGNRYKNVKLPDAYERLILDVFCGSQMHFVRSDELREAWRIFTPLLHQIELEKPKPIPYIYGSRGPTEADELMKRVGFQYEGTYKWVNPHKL

COc1ccc(C(=O)c2c(C(F)(F)F)oc3c2C(=O)c2ccccc2C3=O)cc1
EC50 [1]: 2810 nM (active)
AC50 (INS1): 1380 nM (active)
AC50 [2]: 164 nM (active)
IC50 [3]: > 80000 nM (inactive)
EC50 (Streptococcus): 4920 nM (active)
IC50 [4]: 3050 nM (active)
EC50 (Streptokinase A): > 150000 nM (not active)
EC50 [5]: 2670 nM (active)
